Each compound was assayed on EA.Hy926 cells (assay: Measurement of intracellular nitric oxide using flow-cytometry (DAF FM-DA)). Conditions: summary of the data in Table-1.
Type: cell-based, human
Description: The cultured human endothelial cell line EA.Hy926 cells were procured from American Type Culture Collection ([…]) and were cultured in DMEM (Sigma) supplemented with 2 mM L-glutamine, 100 U/ml penicillin, 100 μg/ml streptomycin and 10% vol/vol FBS (Gibco, Invitrogen). Cells were cultured at 37° C. in 95% humidified air with 5% CO2. After attaining 70-80% confluence, the cells were sub-cultured by trypsinization (0.25% Tryp-EDTA, for 2-3 min). For experimental purpose, cells were seeded onto 24 well tissue culture plates (CLS3524 Sigma). […] Measurement of Intracellular Nitric Oxide Using Flow-Cytometry Experimental Flow: […] EAHy926 (5×10^5) cells were seed into 24 well tissue culture plate and allowed to adhere for 12-16 hrs. 2. After adherence, cells were treated with or without 4.41 μg/ml (10 μM) folic acid and incubated for 24 hrs in DMEM without FBS. 3. The cells in 24 well tissue culture plates were loaded with DAF FM-DA (1 μM) for 30 min, washed twice with serum free medium. 4. Subsequently, cells were stimulated with different concentration of EGCG for 30 mins and washed twice with serum free medium. 5. The stimulated cells were trypsinized with 0.25% Trypsin-EDTA and fixed with 2% PFA for 15 min. 6. The suspension of cells were acquired using flow-cytometry. A population of 10,000 cells were gated and segregated based on their relative fluorescence intensities using FACS Calibur (BD; SanDiego). The mean yield of two distinct populations was measured and compared with the respective population in untreated cells. The data on the Nitric Oxide activity is summarized in Table-1 for the various compositions which may be […] catechins (EGCG) alone at various concentrations or folic acid alone or EGCG in combination with folic acid.

SMILES | NO activity, effect of increasing concentration or of combination (in words)
O=C(O[C@@H]1Cc2c(O)cc(O)cc2O[C@@H]1c1cc(O)c(O)c(O)c1)c1cc(O)c(O)c(O)c1 [EGCG, (−)-epigallocatechin gallate] | increases NO activity till an EGCG concentration of about 11 μg and thereafter the NO activity decreases

Same assay, conditions: with or without folic acid pretreatment 24 hrs, then EGCG stimulation 30 mins, DAF FM-DA fluorescence compared with untreated cells (1.0 = no increase over untreated sample)

SMILES | NO activity
O=C(O[C@@H]1Cc2c(O)cc(O)cc2O[C@@H]1c1cc(O)c(O)c(O)c1)c1cc(O)c(O)c(O)c1 [Example 2, EGCG] | 2.87
O=C(O[C@@H]1Cc2c(O)cc(O)cc2O[C@@H]1c1cc(O)c(O)c(O)c1)c1cc(O)c(O)c(O)c1 [Example 3, EGCG] | 2.98
O=C(O[C@@H]1Cc2c(O)cc(O)cc2O[C@@H]1c1cc(O)c(O)c(O)c1)c1cc(O)c(O)c(O)c1 [Example 4, EGCG] | 3.75
O=C(O[C@@H]1Cc2c(O)cc(O)cc2O[C@@H]1c1cc(O)c(O)c(O)c1)c1cc(O)c(O)c(O)c1 [Example 5, EGCG] | 3.58
O=C(O[C@@H]1Cc2c(O)cc(O)cc2O[C@@H]1c1cc(O)c(O)c(O)c1)c1cc(O)c(O)c(O)c1 [Example 6, EGCG] | 2.32
O=C(O[C@@H]1Cc2c(O)cc(O)cc2O[C@@H]1c1cc(O)c(O)c(O)c1)c1cc(O)c(O)c(O)c1 [Example 7, EGCG] | 1.64
O=C(O[C@@H]1Cc2c(O)cc(O)cc2O[C@@H]1c1cc(O)c(O)c(O)c1)c1cc(O)c(O)c(O)c1 [Example 8, EGCG] | 0.63
